Results from US20090306373A1, “4,7-DIHYDROTHIENO[2,3-B]PYRIDINE COMPOUNDS AND PHARMACEUTICAL COMPOSITIONS” (priority 2005, published 2009).

tested on: alpha-MyHC; assay: alpha-MyHC cytoblot in neonatal rat ventricular myocytes (NRVM); type: cell-based; conditions: Rattus norvegicus, Ventricular myocyte, Table 1, 72 hours, concentration giving 50% of maximum response
Description: In vitro activity of each compound is measured using the alpha-MyHC cytoblot process. Briefly, neonatal rat ventricular myocytes (NRVM) at 120,000 cells/ml in HyQ DME/High modified culture media supplemented with 10% charcoal/dextran treated FBS, 0.1% Nutridoma-SP, 1:100 MEM non-essential amino acids, 1:50 MEM amino acids solution w/o L-Gln, 1 mM sodium pyruvate and 1:100 P/S/G, are plated on gelatin coated sterile 384-well plates (Costar 3712) at 6,000 cells per well. Cells are incubated overnight at 37° C. in 5% CO2 100% humidity. Following overnight growth the media is changed to HyQ DME/High modified culture media supplemented with 0.3% Nutridoma-SP, 1:100 MEM non-essential amino acids, 1:50 MEM amino acids solution w/o L-Gln, 1 mM sodium pyruvate and 1:100 P/S/G. Cells are then dosed with serial dilutions of each compound in DMSO. Each concentration in the dose range is dosed in quadruplicate. Dosing is done in such a way so that the final DMSO concentration was 0.44%. Compound dilutions are 3-fold with the final top concentration of 10 uM. […] Following dosing, the cells are incubated for 72 hours at 37° C. in 5% CO2 100% humidity and then processed with the cytoblot method. Briefly, cell media is aspirated and cell monolayers washed with PBS and fixed with 100% methanol for 30 minutes. Fixed cells are then blocked with PBS, 0.05% Tween-20, 1% BSA, for 1 hour. Following blocking, cells are incubated with primary alpha-MyHC-specific antibody (1:30 dilution of BA-G5 hybridoma conditioned media, ATCC HB276) for 1 hour. Following incubation with the primary antibody, cells are washed with PBS, 0.05% Tween-20, 1% BSA and incubated with secondary antibody (1:1000 dilution, goat-anti-mouse HRP, Southern Biotech, 1031-05) for 1 hour. Following incubation with the secondary antibody, wells are washed and incubated in SuperSignal, West Dura HRP-luminescence substrate for 30 seconds under shaking at room temperature. Luminescence is measured using a Packard Fusion plate reader. […] RLU values are converted into percent fraction of low control and dose responses are fitted to a sigmoidal 4-parameter equation (XLFit, IDBS) where the EC50 and Max Plateau values were extracted. […] Max Plateau is the […] maximum value determined by the dose response fit.

EC50 [nM] | Compound
85.7 | CC(=O)C1=C(C)Nc2sc(C(=O)c3cccc([N+](=O)[O-])c3)c(N)c2C1c1ccccc1Cl (centres unmarked) [Compound 4, 1-[3-amino-4-(2-chloro-phenyl)-6-methyl-2-(3-nitro-benzoyl)-4,7-dihydro-thieno[2,3-b]pyridin-5-yl]-ethanone]
4.02 | CCC(=O)C1=C(CC)Nc2sc(C(=O)c3ccc(F)c(F)c3)c(N)c2C1c1ccccc1F (centres unmarked) [Compound 108, 1-[3-amino-2-(3,4 difluoro-benzoyl)-6-ethyl-4-(2 fluoro-phenyl)-4,7 dihydro-thieno[2,3-b]pyridine-5-yl]propan-1-one]

same assay, conditions: Rattus norvegicus, Ventricular myocyte, Table 4, 72 hours, concentration giving 50% of maximum response

EC50 [nM] | Compound
936 | CCOC(=O)C1=C(C)Nc2sc(C(=O)c3ccccc3)c(N)c2C1(C)c1ccccc1 (centres unmarked) [Compound 206]

same assay, conditions: Rattus norvegicus, Ventricular myocyte, Table 5, 72 hours, concentration giving 50% of maximum response

EC50 [nM] | Compound
3430 | CC(=O)C1=C(C)N(C)c2sc(C(=O)c3ccccc3)c(N)c2C1c1ccccc1 (centres unmarked) [Compound 208, 1-(3-amino-2-benzoyl-6,7 dimethyl-4-phenyl-4,7 dihydro-thieno[2,3-b]pyridin-5-yl)-ethanone]

same assay, conditions: Table 1, 72 hours, fitted maximum, percent fraction of low control (vehicle), in %

Compound | Max Plateau
CC(=O)C1=C(C)Nc2sc(C(=O)c3ccccn3)c(N)c2C1c1ccccc1 (centres unmarked) [Compound 16] | 163.33 ± 32.15
CCC(=O)C1=C(CC)Nc2sc(C(=O)c3ccc(F)c(F)c3)c(N)c2C1c1ccnc(F)c1 (centres unmarked) [Compound 102] | 269.88 ± 36.90
CCC(=O)C1=C(CC)Nc2sc(C(=O)c3ccccc3F)c(N)c2C1c1ccccc1 (centres unmarked) [Compound 67] | 256.12 ± 53.66
CC(=O)C1=C(C)Nc2sc(C(=O)c3ccccc3)c(N)c2C1c1ccc(C(F)(F)F)cc1 (centres unmarked) [Compound 44] | 186.67 ± 11.55
CCC(=O)C1=C(CC)Nc2sc(C(=O)c3ccc(Cl)c(Cl)c3)c(N)c2C1c1ccc2ccccc2c1 (centres unmarked) [Compound 88] | 113.45 ± 11.92
CCC(=O)C1=C(CC)Nc2sc(C(=O)c3cccc(C(=O)OC)c3)c(N)c2C1c1ccccc1 (centres unmarked) [Compound 74] | 262.81 ± 32.38
CCC(=O)C1=C(CC)Nc2sc(C(=O)c3cccc(Cl)c3)c(N)c2C1c1ccccc1 (centres unmarked) [Compound 66] | 306.19 ± 54.21
COC(=O)c1cccc(C(=O)c2sc3c(c2N)C(c2ccccc2)C(C(C)=O)=C(C)N3)c1 (centres unmarked) [Compound 62] | 279.31 ± 67.94
Nc1c(C(=O)c2ccccc2)sc2c1C(c1ccccc1)C(C(=O)c1ccccc1)=C(c1ccccc1)N2 (centres unmarked) [Compound 30] | 100.00 ± 0.00
CC(=O)C1=C(C)Nc2sc(C(=O)c3ccc(Cl)c(Cl)c3)c(N)c2C1c1ccccc1 (centres unmarked) [Compound 2] | 207.74 ± 23.00
CC(=O)C1=C(C)Nc2sc(C(=O)c3cccc(F)c3)c(N)c2C1c1ccccc1 (centres unmarked) [Compound 61] | 230.65 ± 55.61
CCC(=O)C1=C(CC)Nc2sc(C(=O)c3ccc(C#N)cc3)c(N)c2C1c1ccccc1 (centres unmarked) [Compound 112] | 266.67 ± 57.74
CC(=O)C1=C(C)Nc2sc(C(=O)c3ccccc3Cl)c(N)c2C1c1ccccc1 (centres unmarked) [Compound 57] | 246.00 ± 16.33
CCCC(=O)C1=C(CCC)Nc2sc(C(=O)c3ccc(Cl)cc3Cl)c(N)c2C1c1ccccc1F (centres unmarked) [Compound 91] | 143.39 ± 20.69
CC(C)C(=O)C1=C(C(C)C)Nc2sc(C(=O)c3ccc(Cl)c(Cl)c3)c(N)c2C1c1ccccc1 (centres unmarked) [Compound 46] | 98.33 ± 4.08
CCC(=O)C1=C(CC)Nc2sc(C(=O)c3ccc(Cl)c(Cl)c3)c(N)c2C1c1cccc(F)c1 (centres unmarked) [Compound 84] | 242.72 ± 19.34
CCC(=O)C1=C(CC)Nc2sc(C(=O)c3ccc(Cl)c(Cl)c3)c(N)c2C1c1ccccc1[N+](=O)[O-] (centres unmarked) [Compound 59] | 152.77 ± 11.42
CCCC(=O)C1=C(CCC)Nc2sc(C(=O)c3ccc(Cl)c(Cl)c3)c(N)c2C1c1ccccc1F (centres unmarked) [Compound 87] | 187.66 ± 12.24
CCCC(=O)C1=C(CCC)Nc2sc(C(=O)c3ccc(F)c(F)c3)c(N)c2C1c1ccccc1 (centres unmarked) [Compound 95] | 147.01 ± 6.43
CC(=O)C1=C(C)Nc2sc(C(=O)c3ccccc3)c(N)c2C1c1ccc(F)cc1 (centres unmarked) [Compound 37] | 227.92 ± 12.46
CC(=O)C1=C(C)Nc2sc(C(=O)c3cccc(C(=O)O)c3)c(N)c2C1c1ccccc1 (centres unmarked) [Compound 65] | 100.00 ± 0.00
CCC(=O)C1=C(CC)Nc2sc(C(=O)c3cccc(F)c3)c(N)c2C1c1ccccc1 (centres unmarked) [Compound 49] | 299.18 ± 42.31
CCC(=O)C1=C(CC)Nc2sc(C(=O)c3ccc(Cl)c(Cl)c3)c(N)c2C1c1ccnc(F)c1 (centres unmarked) [Compound 98] | 255.02 ± 32.01
CC(=O)C1=C(C)Nc2sc(C(=O)c3ccccc3)c(N)c2C1c1ccccc1 (centres unmarked) [Compound 3] | 250.88 ± 32.62
COc1ccc(C2C(C(C)=O)=C(C)Nc3sc(C(=O)c4ccccc4)c(N)c32)cc1 (centres unmarked) [Compound 14] | 182.73 ± 26.95
CCC(=O)C1=C(CC)Nc2sc(C(=O)c3cccc([N+](=O)[O-])c3)c(N)c2C1c1ccccc1 (centres unmarked) [Compound 96] | 254.87 ± 72.67
CC(=O)C1=C(C)Nc2sc(C(=O)c3cccc(Br)c3)c(N)c2C1c1ccccc1 (centres unmarked) [Compound 6] | 289.34 ± 70.69
CC(=O)C1=C(C)Nc2sc(C(=O)c3ccc(Cl)c(Cl)c3)c(N)c2C1c1ccc(O)cc1 (centres unmarked) [Compound 23] | 277.53 ± 33.46

same assay, conditions: Table 2, 72 hours, fitted maximum, percent fraction of low control (vehicle), in %

Compound | Max Plateau
CCOC(=O)C1=C(CC)Nc2sc(C(=O)c3ccc(Cl)c(Cl)c3)c(N)c2C1c1ccncc1Cl (centres unmarked) [Compound 169] | 261.04
CCC1=C(C(=O)OC)C(c2cccc(Cl)c2F)c2c(sc(C(=O)c3ccc(Cl)c(Cl)c3)c2N)N1 (centres unmarked) [Compound 155] | 224.86
CCOC(=O)C1=C(CC)Nc2sc(C(=O)c3cc(Cl)ccc3Cl)c(N)c2C1c1ccccc1 (centres unmarked) [Compound 146] | 213.49
CCOC(=O)C1=C(CC)Nc2sc(C(=O)c3cccc(C(=O)O)c3)c(N)c2C1c1ccccc1 (centres unmarked) [Compound 152] | 238.69
CCC1=C(C(=O)OC)C(c2ccccc2)c2c(sc(C(=O)c3cccc([N+](=O)[O-])c3)c2N)N1 (centres unmarked) [Compound 139] | 281.08
COCCOC(=O)C1=C(C)Nc2sc(C(=O)c3ccc(Cl)c(Cl)c3)c(N)c2C1c1ccccc1 (centres unmarked) [Compound 119] | 234.93
COC(=O)C1=C(C2CC2)Nc2sc(C(=O)c3ccc(Cl)c(Cl)c3)c(N)c2C1c1ccccc1 (centres unmarked) [Compound 133] | 180.24
CCC1=C(C(=O)OC)C(c2cc(F)cc(F)c2)c2c(sc(C(=O)c3ccccc3)c2N)N1 (centres unmarked) [Compound 172] | 304.08
COC(=O)C1=C(CCc2ccccc2)Nc2sc(C(=O)c3ccc(Cl)c(Cl)c3)c(N)c2C1c1ccccc1F (centres unmarked) [Compound 154] | 125.87
CCC1=C(C(=O)OCC(C)C)C(c2ccccc2)c2c(sc(C(=O)c3ccc(Cl)c(Cl)c3)c2N)N1 (centres unmarked) [Compound 161] | 232.35
COC(=O)C1=C(C(C)C)Nc2sc(C(=O)c3cccc(C#N)c3)c(N)c2C1c1ccccc1F (racemic) [Compound 177] | 162.75
CCOC(=O)C1=C(CC)Nc2sc(C(=O)c3ccc(F)c(CC(=O)OC)c3)c(N)c2C1c1ccccc1 (racemic) [Compound 194] | 188.67
CCC1=C(C(=O)OC(C)CC)C(c2ccccc2F)c2c(sc(C(=O)c3cccc(C#N)c3)c2N)N1 (single isomer, unassigned) [Compound 166] | 219.07
CCC1=C(C(=O)OC(C)CC)C(c2ccccc2F)c2c(sc(C(=O)c3ccc(Cl)c(Cl)c3)c2N)N1 (single isomer, unassigned) [Compound 163] | 224.85
COC(=O)C1=C(C(C)(C)C)Nc2sc(C(=O)c3ccc(Cl)c(Cl)c3)c(N)c2C1c1ccccc1 (centres unmarked) [Compound 131] | 158.97
CCC1=C(C(=O)OC)C(c2ccc(F)cc2F)c2c(sc(C(=O)c3ccc(Cl)c(Cl)c3)c2N)N1 (centres unmarked) [Compound 153] | 234.66
CCC1=C(C(=O)OC)C(c2ccccc2)c2c(sc(C(=O)c3cccc(C#N)c3)c2N)N1 (centres unmarked) [Compound 143] | 290.53

same assay, conditions: Table 3, 72 hours, fitted maximum, percent fraction of low control (vehicle), in %

Compound | Max Plateau
CCNC(=O)C1=C(C)Nc2sc(C(=O)c3ccc(Cl)c(Cl)c3)c(N)c2C1c1ccccc1 (racemic) [Compound 195] | 126.67 ± 23.09
CCCCNC(=O)C1=C(C)Nc2sc(C(=O)c3ccc(Cl)c(Cl)c3)c(N)c2C1c1ccccc1 (racemic) [Compound 196] | 121.93 ± 25.12

same assay, conditions: Table 4, 72 hours, concentration giving 50% of maximum response

EC50 [nM] | Compound
792 | CCOC(=O)C1=C(C)Nc2sc(C(=O)c3cccc(Br)c3)c(N)c2C1(C)c1ccccc1 (centres unmarked) [Compound 197]

same assay, conditions: Table 4, 72 hours, fitted maximum, percent fraction of low control (vehicle), in %

Compound | Max Plateau
CCOC(=O)C1=C(C)Nc2sc(C(=O)c3cccc(Br)c3)c(N)c2C1(C)c1ccccc1 (centres unmarked) [Compound 197] | 159.55 ± 10.94
